In patent US7314858B2, “Retrocyclins: antiviral and antimicrobial peptides” (priority 2001, dated 2008):
Read-outs that look alike come from different tables or passages of the source. Where a SMILES comes first, the peptide text is derived from it. Bridges are numbered along the chain shown (N, C = ends).

How the values were obtained:
CD4+ PBMC = settings: for average number of cells: 20 μg/ml peptide, CD4+ PBMC; for cytotoxicity (trypan blue exclusion): 20 μg/ml, HIV-1-infected CD4+ PBMC
H9 cells = test: Cytotoxicity by trypan blue exclusion; settings: for cytotoxicity (trypan blue exclusion): 20 μg/ml, HIV-1-infected H9 cells
gp120 (LAV) = target: T1, gp120 (LAV) (Human immunodeficiency virus type 1 group M subtype B, UniProt P03377); test: Surface plasmon resonance binding; design: species or system HIV-1
T1 construct: Glycosylated HIV-1 gp120 (LAV) envelope glycoprotein; purchased Protein Sciences Corporation, Meriden, Conn; 2003-LAV
Experimental: FIG. 20. Binding to gp120. These binding isotherms were measured by surface plasmon resonance, using a biosensor chip that contained immobilized, recombinant gp120. Various concentrations of RC-100 and RC-101 (0.05 to 0.5 μg/ml) flowed over the biosensor chip between minutes 1 to 4, to allow the “on rates” to be measured. At 4 minutes, the peptide-containing solutions were replaced by peptide-free medium, to ascertain the “off-rates.”
Surface plasmon resonance. Recombinant human soluble CD4 (full-length 45 kDa glycosylated ectodomain) was produced by ExpresSF+S. frugiperda cells in serum-free medium (Protein Sciences Corporation, Meriden, Conn.). Glycosylated HIV-1 gp120 (LAV) envelope glycoprotein (Catalog No. 2003-LAV) was purchased from the same source. Recombinant HIV-1BaL was obtained through the AIDS Research and Reference Reagent Program, Division of AIDS, National Institute of Allergy and Infectious Disease, NIH.
Surface plasmon resonance (SPR) experiments were done with a Biacore 2000 system (Biacore, Inc., Piscataway, N.J.). The running buffer (pH 7.4) contained 10 mM HEPES, 150 mM NaCl, 3 mM EDTA and 0.005% polysorbate 20. The immobilized proteins (gp120-LAV and CD4) were dissolved at 20 μg/ml in 10 mM sodium acetate, pH 5.0 and immobilized on a Biacore CM5 sensor chip using the amine coupling method. The chip was activated by mixing 400 mM EDC (N-ethyl-N-(3-dimethylaminopropyl)-carbodiimide hydrochloride) and 100 mM N-hydroxysuccinimide. An immobilization level of −6000 response units (RU) was attained for each bound protein. Residual reactive groups on the chip surface were blocked using 1.0 Methanolamine/HCl, pH 8.5.
The flow cell chip used as a control lacked immobilized protein but was otherwise treated as above. Signals were corrected for nonspecific binding by subtracting the control signal. To regenerate the chip surface, bound ligands were removed with 10 mM HCl. Data were analyzed with BIAevaluation 3.1 software. Curve fitting was done with an assumption of 1:1 binding.
We previously reported that the protection against HIV-1 afforded by retrocyclin-1 and its analogs was correlated to their binding to gp120 and CD4. In those experiments, biosensor chips containing immobilized gp120 or CD4 were perfused with a 1 μg/ml solution of the peptides, and binding was measured by surface plasmon resonance. When we compared binding by retrocyclin-1 and RC-101 in exactly the same manner, we saw very little difference between them. FIG. 20 compares the binding of lower concentrations of these peptides, ranging from 0.05 to 0.5 μg/ml, to immobilized gp120 LAV. From these binding isotherms, and from similar studies performed with biosensor chips containing immobilized gp120 BaL or CD4, the binding constants shown in Table 7 were obtained. […]

HSV-1 = test: HSV inactivation microplate assay on ME-180 cells (MTT); type: cell-based, herpes simplex virus, type 1; settings: 2-50 μg/ml, 2 hrs with virus, 72 hrs culture
Experimental: FIG. 14. Inactivation of HSV-1 and HSV-2 by retrocyclin and RC-101. Retrocyclin (left panel) and RC-101 (right panel) at the indicated concentrations were incubated with herpes simplex virus, type 1 (HSV-1) or HSV-2 for 2 hrs and then added to ME-180 cell monolayers. Cells were incubated at 37° C. for 72 hrs, and cytotoxicity was measured with an MTT kit.
Some retrocyclins are slightly active against herpes simplex virus (HSV). To determine if the activity of retrocyclin against HIV-1 was specific or representative of a more global antiviral effect, it was tested its ability to prevent HSV infection in vitro. A quantitative microplate assay was used to screen retrocyclin and retrocyclin-congeners for their ability to inactivate HSV type 1 (HSV-1) and HSV-2. The assay utilized small amounts of peptide and simultaneously evaluated for peptide-induced cytotoxicity. In brief, final peptide concentrations of 2-50 μg/ml were incubated with virus stocks for 2 hrs and added directly to ME-180 human cervical carcinoma cells. Cultures were incubated at 37° C. for 72 hrs and cytotoxicity was measured using a 3-(4,5-dimethylthiazon-2-yl)-2,5-diphenyltetrazolium bromide (MTT) cell proliferation kit (Boehringer-Mannheim, Germany). Calculations to assess antiviral activity and compute “percent protection” are delineated in (90).

Row | Structure (SMILES) | average number of cells (CD4+ PBMC; IIIB) [mL⁻¹] | average number of cells (CD4+ PBMC; JR-CSF) [mL⁻¹] | average number of cells (CD4+ PBMC; no virus) [mL⁻¹] | cytotoxicity (trypan blue exclusion) (CD4+ PBMC) | average number of cells (H9 cells; 20 μg/ml peptide, H9, IIIB) [mL⁻¹] | cytotoxicity (trypan blue exclusion) (H9 cells) | koff (gp120 (LAV)) [s⁻¹] | kon (gp120 (LAV)) [M⁻¹ s⁻¹] | protection against HSV-1 (HSV-1)
1 | CC[C@H](C)[C@@H]1NC(=O)CNC(=O)[C@H](CCCNC(=N)N)NC(=O)CNC(=O)[C@@H]2CSSC[C@H](NC1=O)C(=O)N[C@@H](CCCNC(=N)N)C(=O)N[C@H]1CSSC[C@H](NC(=O)[C@H](CCCNC(=N)N)NC(=O)[C@@H]3CSSC[C@H](NC(=O)[C@H]([C@@H](C)CC)NC1=O)C(=O)NCC(=O)N[C@@H](CCCNC(=N)N)C(=O)NCC(=O)N[C@@H]([C@@H](C)CC)C(=O)N3)C(=O)N[C@@H]([C@@H](C)CC)C(=O)N2 [RC-100, Retrocyclin] (cyclo(GICRCICGRGICRCICGR); disulfide 3-16, 5-14, 7-12) | 1.68e+06 | 1.58e+06 | 980000 | neither 20 μg/ml retrocyclin nor RC-101 were cytotoxic | 1.2e+06 | neither 20 μg/ml retrocyclin nor RC-101 were cytotoxic | 0.00296 | 80300 | not HSV-1
2 | CC[C@H](C)[C@@H]1NC(=O)CNC(=O)[C@H](CCCCN)NC(=O)CNC(=O)[C@@H]2CSSC[C@H](NC1=O)C(=O)N[C@@H](CCCNC(=N)N)C(=O)N[C@H]1CSSC[C@H](NC(=O)[C@H](CCCNC(=N)N)NC(=O)[C@@H]3CSSC[C@H](NC(=O)[C@H]([C@@H](C)CC)NC1=O)C(=O)NCC(=O)N[C@@H](CCCNC(=N)N)C(=O)NCC(=O)N[C@@H]([C@@H](C)CC)C(=O)N3)C(=O)N[C@@H]([C@@H](C)CC)C(=O)N2 [RC-101, R9K-Retrocyclin] |  |  |  | neither 20 μg/ml retrocyclin nor RC-101 were cytotoxic |  | neither 20 μg/ml retrocyclin nor RC-101 were cytotoxic | 0.00304 | 97200 | modestly protective
